# Test results from US9169254B2, “Spiroimidazolone derivative” (Chugai Seiyaku Kabushiki Kaisha, priority 2009, dated 2015).
# Target: T1, human PTH1 receptor (Homo sapiens, UniProt Q03431)
# T1 sequence (Q03431 27-593): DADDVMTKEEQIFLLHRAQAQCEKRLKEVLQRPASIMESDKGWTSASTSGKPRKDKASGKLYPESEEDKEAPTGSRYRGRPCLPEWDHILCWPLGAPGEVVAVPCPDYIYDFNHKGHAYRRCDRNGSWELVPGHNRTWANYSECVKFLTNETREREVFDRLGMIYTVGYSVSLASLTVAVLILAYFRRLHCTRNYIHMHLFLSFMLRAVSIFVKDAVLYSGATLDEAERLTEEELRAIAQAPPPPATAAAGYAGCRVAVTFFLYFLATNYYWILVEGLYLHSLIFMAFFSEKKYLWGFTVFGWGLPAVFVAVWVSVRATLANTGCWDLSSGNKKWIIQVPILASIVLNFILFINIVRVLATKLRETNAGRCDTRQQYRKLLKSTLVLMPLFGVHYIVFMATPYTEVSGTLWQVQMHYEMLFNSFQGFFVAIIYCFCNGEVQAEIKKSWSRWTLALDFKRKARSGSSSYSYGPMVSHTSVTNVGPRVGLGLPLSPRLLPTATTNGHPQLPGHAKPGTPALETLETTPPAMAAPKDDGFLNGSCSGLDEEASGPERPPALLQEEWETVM
# Assay: In vitro cAMP signal activity in HKRK-B7 cells (LLC-PK1 cells overexpressing the human PTH1 receptor)
# Format: cell-based
# Settings: HKRK-B7 cells; compound at 1×10^−3 M; cAMP produced as percentage of that produced by hPTH(1-34) at 100 nM
row,SMILES,cAMP production activity (%)
1,"Cc1cc(C(=O)N2CCC(O)(CO)CC2)cc(C)c1/C=C/S(=O)(=O)N1CCC2(CC1)N=C(c1ccc(F)c(C(F)(F)F)c1)NC2=O [Compound 971, 2-(4-fluoro-3-trifluoromethyl-phenyl)-8-{(E)-2-[4-(4-hydroxy-4-hydroxymethyl-piperidine-1-carbonyl)-2,6-dimethyl-phenyl]-ethenesulfonyl}-1,3,8-triaza-spiro[4.5]dec-1-en-4-one]",83%
2,"O=C1NC(C2CCCCC2)=NC12CCN(S(=O)(=O)CCc1cccc3[nH]c(=O)oc13)CC2 [Compound 261, 2-Cyclohexyl-8-[2-(2-oxo-2,3-dihydro-benzoxazol-7-yl)-ethanesulfonyl]-1,3,8-triaza-spiro[4.5]dec-1-en-4-one]",70%
3,"O=C1NC(C2CCCCC2)=NC12CCN(S(=O)(=O)c1ccc(Cl)s1)CC2 [Compound 55, 8-(5-chloro-thiophene-2-sulfonyl)-2-cyclohexyl-1,3,8-triaza-spiro[4.5]dec-1-en-4-one]",55%
4,Cc1cc2ccc1CCS(=O)(=O)N1CCC3(CC1)N=C(NC3=O)c1cc(cc(C(F)(F)F)c1)OCCCCCN(C)C2=O [Compound 1409],13%
5,"Cc1cc(CN(C)C(N)=O)cc(C)c1CCS(=O)(=O)N1CCC2(CC1)N=C(C1CCC(CCC(F)(F)F)CC1)NC2=O (stereo not shown) [Compound 1389, 1-[3,5-dimethyl-4-(2-{4-oxo-2-[4-(3,3,3-trifluoro-propyl)-cyclohexyl]-1,3,8-triaza-spiro[4.5]dec-1-ene-8-sulfonyl}-ethyl)-benzyl]-1-methyl-urea]",67%
6,"Cc1cc(C(=O)N2CCN(C(=O)CCCN(C)C)CC2)cc(C)c1/C=C/S(=O)(=O)N1CCC2(CC1)N=C(c1cccc(OC(F)(F)F)c1)NC2=O [Compound 449, 8-((E)-2-{4-[4-(4-dimethylamino-butyryl)-piperazine-1-carbonyl]-2,6-dimethyl-phenyl}-ethenesulfonyl)-2-(3-trifluoromethoxy-phenyl)-1,3,8-triaza-spiro[4.5]dec-1-en-4-one]",94%
7,"Cc1cc(C(=O)N2CCC(O)CC2)cc(C)c1CCS(=O)(=O)N1CCC2(CC1)N=C(c1ccc(F)c(C(F)(F)F)c1)NC2=O [Compound 797, 2-(4-fluoro-3-trifluoromethyl-phenyl)-8-{2-[4-(4-hydroxy-piperidine-1-carbonyl)-2,6-dimethyl-phenyl]-ethanesulfonyl}-1,3,8-triaza-spiro[4.5]dec-1-en-4-one]",88%
8,"CC(=O)N(C[C@H](O)CO)c1cc(C)c(CCS(=O)(=O)N2CCC3(CC2)N=C(CCCCCCCCC(F)(F)F)NC3=O)c(C)c1 [Compound 824, N—((S)-2,3-dihydroxy-propyl)-N-(3,5-dimethyl-4-{2-[4-oxo-2-(9,9,9-trifluoro-nonyl)-1,3,8-triaza-spiro[4.5]dec-1-ene-8-sulfonyl]-ethyl}-phenyl)-acetamide]",140%
9,"Cc1cc(N(C)C(N)=O)cc(C)c1CCS(=O)(=O)N1CCC2(CC1)N=C(C1CCCC(C)C1)NC2=O (stereo not shown) [Compound 1297, 1-(3,5-Dimethyl-4-{2-[2-(3-methyl-cyclohexyl)-4-oxo-1,3,8-triaza-spiro[4.5]dec-1-ene-8-sulfonyl]-ethyl}-phenyl)-1-methyl-urea]",98%
10,"CC(=O)OC[C@H](CN(C(C)=O)c1ccc(CCS(=O)(=O)N2CCC3(CC2)N=C(c2ccc(C(F)(F)F)cc2)NC3=O)c(C)c1)OC(C)=O [Compound 151, acetic acid (S)-1-acetoxymethyl-2-[acetyl-(3-methyl-4-{2-[4-oxo-2-(4-trifluoromethyl-phenyl)-1,3,8-triaza-spiro[4.5]dec-1-ene-8-sulfonyl]-ethyl}-phenyl)-amino]-ethyl ester]",53%
11,"O=C1NC(C2CCCCC2)=NC12CCN(S(=O)(=O)CCc1cccc3[nH]ccc13)CC2 [Compound 303, 2-Cyclohexyl-8-[2-(1H-indol-4-yl)-ethanesulfonyl]-1,3,8-triaza-spiro[4.5]dec-1-en-4-one]",76%

# Other lines, results leading:
row,cAMP production activity (%),SMILES
1,38%,"Cc1cc(C(=O)N2CC(F)(F)C(F)(F)C2)ccc1CCS(=O)(=O)N1CCC2(CC1)N=C(c1cccc(C(F)(F)F)c1)NC2=O [Compound 368, 8-{2-[2-methyl-4-(3,3,4,4-tetrafluoro-pyrrolidine-1-carbonyl)-phenyl]-ethanesulfonyl}-2-(3-trifluoromethyl-phenyl)-1,3,8-triaza-spiro[4.5]dec-1-en-4-one]"
2,58%,"Cc1cc(S(=O)(=O)NCCCCO)ccc1CCS(=O)(=O)N1CCC2(CC1)N=C(c1cccc(OC(F)(F)F)c1)NC2=O [Compound 287, N-(4-hydroxy-butyl)-3-methyl-4-{2-[4-oxo-2-(3-trifluoromethoxy-phenyl)-1,3,8-triaza-spiro[4.5]dec-1-ene-8-sulfonyl]-ethyl}-benzenesulfonamide]"
3,49%,"Cc1cc(C(=O)N(C)C)ccc1CCS(=O)(=O)N1CCC2(CC1)N=C(CCc1ccccc1)NC2=O [Compound 101, 3,N,N-trimethyl-4-[2-(4-oxo-2-phenethyl-1,3,8-triaza-spiro[4.5]dec-1-ene-8-sulfonyl)-ethyl]-benzamide]"
4,98%,"CCC[C@@H]1CCC[C@H](C2=NC3(CCN(S(=O)(=O)CCc4c(C)cc(N(C)C(N)=O)cc4C)CC3)C(=O)N2)C1 [Compound 1343, 1-(3,5-dimethyl-4-{2-[4-oxo-2-((1S,3R)-3-propyl-cyclohexyl)-1,3,8-triaza-spiro[4.5]dec-1-ene-8-sulfonyl]-ethyl}-phenyl)-1-methyl-urea]"
5,98%,"Cc1cc(N(C)C(N)=O)cc(C)c1CCS(=O)(=O)N1CCC2(CC1)N=C(CCCCCCc1ccccc1)NC2=O [Compound 1349, 1-(3,5-dimethyl-4-{2-[4-oxo-2-(6-phenyl-hexyl)-1,3,8-triaza-spiro[4.5]dec-1-ene-8-sulfonyl]-ethyl}-phenyl)-1-methyl-urea]"
6,99%,"Cc1cc(N(C)C(N)=O)cc(C)c1CCS(=O)(=O)N1CCC2(CC1)N=C(CCCCCC(F)(F)C(F)(F)F)NC2=O [Compound 1043, 1-(3,5-Dimethyl-4-{2-[4-oxo-2-(6,6,7,7,7-pentafluoro-heptyl)-1,3,8-triaza-spiro[4.5]dec-1-ene-8-sulfonyl]-ethyl}-phenyl)-1-methyl-urea]"
7,68%,"CC(=O)Nc1ccc(CCS(=O)(=O)N2CCC3(CC2)N=C([C@H]2CC[C@@H](OCCCF)CC2)NC3=O)c(C)c1 [Compound 914, N-[4-(2-{2-[4-(3-fluoro-propoxy)-cyclohexyl]-4-oxo-1,3,8-triaza-spiro[4.5]dec-1-ene-8-sulfonyl}-ethyl)-3-methyl-phenyl]-acetamide]"
8,64%,"CC(=O)Nc1ccc(CCS(=O)(=O)N2CCC3(CC2)N=C(C2CCC(CCCCF)CC2)NC3=O)c(C)c1 (stereo not shown) [Compound 1296, N-[4-(2-{2-[4-(4-Fluoro-butyl)-cyclohexyl]-4-oxo-1,3,8-triaza-spiro[4.5]dec-1-ene-8-sulfonyl}-ethyl)-3-methyl-phenyl]-acetamide]"
